Laboratory results reported in patent EP4467141A1, “PYRAZOLO-QUINOLINES AS SELECTIVE INHIBITORS OF GENOTOXIC STRESS-INDUCED IKK/NF- KB PATHWAYS FOR CANCER THERAPY” (Max-Delbrück-Centrum für Molekulare Medizin in der …, priority 2023, dated 2024).

Tests used:
Experiment in all cases: Kinase panel study
Assay type in all cases: biochemical
Conditions in all cases: read-out: Percentage of inhibition; for inhibition at 1 µM: 1000nM; for inhibition at 10 µM: 10000nM
PRKCQ (PKC theta) = molecular target: T1, PRKCQ (PKC theta) (Homo sapiens, UniProt Q04759)
T1 construct: purchased Thermo Fisher Scientific
T1 sequence (Q04759 whole entry): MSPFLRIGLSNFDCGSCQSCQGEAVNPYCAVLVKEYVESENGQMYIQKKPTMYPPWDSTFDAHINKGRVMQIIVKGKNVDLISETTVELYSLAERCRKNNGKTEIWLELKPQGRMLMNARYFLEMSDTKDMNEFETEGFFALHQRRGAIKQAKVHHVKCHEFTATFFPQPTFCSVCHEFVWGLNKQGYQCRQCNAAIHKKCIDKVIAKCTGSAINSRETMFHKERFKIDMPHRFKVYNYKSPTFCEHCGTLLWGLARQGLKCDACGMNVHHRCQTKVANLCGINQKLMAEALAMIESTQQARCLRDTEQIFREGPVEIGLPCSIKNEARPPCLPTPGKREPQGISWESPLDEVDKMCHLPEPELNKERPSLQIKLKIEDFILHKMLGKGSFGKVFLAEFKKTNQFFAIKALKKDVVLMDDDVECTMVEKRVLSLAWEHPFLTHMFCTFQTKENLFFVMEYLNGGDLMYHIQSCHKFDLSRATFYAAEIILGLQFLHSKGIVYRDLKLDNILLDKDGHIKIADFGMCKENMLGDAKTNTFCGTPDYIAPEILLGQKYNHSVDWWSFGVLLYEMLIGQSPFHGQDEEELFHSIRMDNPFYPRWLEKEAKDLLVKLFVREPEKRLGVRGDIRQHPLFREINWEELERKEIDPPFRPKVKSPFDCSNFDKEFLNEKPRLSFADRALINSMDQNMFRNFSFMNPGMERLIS
Procedure, shortened: (§1)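 A commercial kinase profiling service ran the assays according to its ZLyte or Adapta standard protocols. Compound was present at 10 µM or 1 µM, and kinase activity loss was expressed as percent inhibition.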

CAMK2D (CaMKII delta) = molecular target: T2, CAMK2D (CaMKII delta) (Homo sapiens, UniProt Q13557)
T2 construct: purchased Thermo Fisher Scientific
Procedure, shortened: as §1

TXK = molecular target: T3, TXK (Homo sapiens, UniProt P42681)
T3 construct: purchased Thermo Fisher Scientific
T3 sequence (P42681 1-527): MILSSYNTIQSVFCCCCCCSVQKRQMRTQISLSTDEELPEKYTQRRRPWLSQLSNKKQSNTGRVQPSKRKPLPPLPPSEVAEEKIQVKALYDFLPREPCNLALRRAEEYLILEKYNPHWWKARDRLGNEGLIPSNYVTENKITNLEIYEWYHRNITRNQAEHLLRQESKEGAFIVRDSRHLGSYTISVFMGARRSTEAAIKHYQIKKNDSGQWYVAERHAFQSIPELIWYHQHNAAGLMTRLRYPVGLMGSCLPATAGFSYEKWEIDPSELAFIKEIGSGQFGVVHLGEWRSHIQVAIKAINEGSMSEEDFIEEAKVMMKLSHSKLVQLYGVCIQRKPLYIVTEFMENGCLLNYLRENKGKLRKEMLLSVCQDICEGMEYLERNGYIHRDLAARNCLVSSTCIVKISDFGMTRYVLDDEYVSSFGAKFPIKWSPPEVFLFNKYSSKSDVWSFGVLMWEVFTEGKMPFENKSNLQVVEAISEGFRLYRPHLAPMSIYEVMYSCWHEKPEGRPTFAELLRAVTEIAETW
Procedure, shortened: as §1

FGFR3 K650E = molecular target: T4, FGFR3 K650E (Homo sapiens, UniProt P22607, K650E)
T4 construct: purchased Thermo Fisher Scientific
T4 sequence (P22607 23-806 K650E): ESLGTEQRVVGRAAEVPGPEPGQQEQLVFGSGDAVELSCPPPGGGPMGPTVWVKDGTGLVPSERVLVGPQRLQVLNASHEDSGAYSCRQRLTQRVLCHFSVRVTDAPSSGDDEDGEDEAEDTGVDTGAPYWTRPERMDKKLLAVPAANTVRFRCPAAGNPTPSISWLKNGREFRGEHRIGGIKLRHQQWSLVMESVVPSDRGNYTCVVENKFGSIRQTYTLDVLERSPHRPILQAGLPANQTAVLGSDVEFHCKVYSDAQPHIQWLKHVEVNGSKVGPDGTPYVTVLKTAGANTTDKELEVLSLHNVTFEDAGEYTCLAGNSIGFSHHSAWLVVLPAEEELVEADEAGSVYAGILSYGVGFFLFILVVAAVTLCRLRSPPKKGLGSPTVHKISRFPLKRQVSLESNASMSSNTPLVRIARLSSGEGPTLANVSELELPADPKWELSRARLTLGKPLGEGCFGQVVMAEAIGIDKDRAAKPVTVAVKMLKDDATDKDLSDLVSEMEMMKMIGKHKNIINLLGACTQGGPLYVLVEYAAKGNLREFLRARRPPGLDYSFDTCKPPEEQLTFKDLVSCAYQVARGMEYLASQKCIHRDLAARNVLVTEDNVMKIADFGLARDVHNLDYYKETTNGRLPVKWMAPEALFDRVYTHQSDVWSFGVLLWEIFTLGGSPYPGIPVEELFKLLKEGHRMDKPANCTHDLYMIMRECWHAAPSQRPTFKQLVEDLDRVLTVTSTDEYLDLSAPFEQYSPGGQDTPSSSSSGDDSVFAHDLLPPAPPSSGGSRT
Procedure, shortened: as §1

PRKCB1 (PKC beta I) = molecular target: T5, PRKCB1 (PKC beta I) (Homo sapiens, UniProt P05771)
T5 construct: purchased Thermo Fisher Scientific
T5 sequence (P05771 whole entry): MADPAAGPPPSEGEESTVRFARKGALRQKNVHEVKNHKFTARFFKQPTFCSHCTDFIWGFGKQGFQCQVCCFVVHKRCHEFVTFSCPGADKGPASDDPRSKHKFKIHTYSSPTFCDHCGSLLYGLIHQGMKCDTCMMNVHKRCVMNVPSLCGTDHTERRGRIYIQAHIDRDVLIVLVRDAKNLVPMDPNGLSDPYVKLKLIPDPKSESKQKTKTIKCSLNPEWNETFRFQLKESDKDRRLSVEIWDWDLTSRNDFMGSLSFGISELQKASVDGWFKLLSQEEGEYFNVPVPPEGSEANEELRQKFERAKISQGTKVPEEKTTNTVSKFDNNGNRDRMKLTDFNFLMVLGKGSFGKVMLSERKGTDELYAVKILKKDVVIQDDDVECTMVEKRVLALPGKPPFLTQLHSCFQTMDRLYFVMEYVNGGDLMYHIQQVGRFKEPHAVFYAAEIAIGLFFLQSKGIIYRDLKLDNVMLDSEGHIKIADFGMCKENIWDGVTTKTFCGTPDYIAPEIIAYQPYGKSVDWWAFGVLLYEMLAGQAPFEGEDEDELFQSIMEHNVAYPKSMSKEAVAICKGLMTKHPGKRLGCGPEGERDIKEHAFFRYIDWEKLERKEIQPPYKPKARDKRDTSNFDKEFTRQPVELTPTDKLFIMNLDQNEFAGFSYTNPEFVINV
Procedure, shortened: as §1

TYRO3 (RSE) = molecular target: T6, TYRO3 (RSE) (Homo sapiens, UniProt Q06418)
T6 construct: purchased Thermo Fisher Scientific
T6 sequence (Q06418 41-890): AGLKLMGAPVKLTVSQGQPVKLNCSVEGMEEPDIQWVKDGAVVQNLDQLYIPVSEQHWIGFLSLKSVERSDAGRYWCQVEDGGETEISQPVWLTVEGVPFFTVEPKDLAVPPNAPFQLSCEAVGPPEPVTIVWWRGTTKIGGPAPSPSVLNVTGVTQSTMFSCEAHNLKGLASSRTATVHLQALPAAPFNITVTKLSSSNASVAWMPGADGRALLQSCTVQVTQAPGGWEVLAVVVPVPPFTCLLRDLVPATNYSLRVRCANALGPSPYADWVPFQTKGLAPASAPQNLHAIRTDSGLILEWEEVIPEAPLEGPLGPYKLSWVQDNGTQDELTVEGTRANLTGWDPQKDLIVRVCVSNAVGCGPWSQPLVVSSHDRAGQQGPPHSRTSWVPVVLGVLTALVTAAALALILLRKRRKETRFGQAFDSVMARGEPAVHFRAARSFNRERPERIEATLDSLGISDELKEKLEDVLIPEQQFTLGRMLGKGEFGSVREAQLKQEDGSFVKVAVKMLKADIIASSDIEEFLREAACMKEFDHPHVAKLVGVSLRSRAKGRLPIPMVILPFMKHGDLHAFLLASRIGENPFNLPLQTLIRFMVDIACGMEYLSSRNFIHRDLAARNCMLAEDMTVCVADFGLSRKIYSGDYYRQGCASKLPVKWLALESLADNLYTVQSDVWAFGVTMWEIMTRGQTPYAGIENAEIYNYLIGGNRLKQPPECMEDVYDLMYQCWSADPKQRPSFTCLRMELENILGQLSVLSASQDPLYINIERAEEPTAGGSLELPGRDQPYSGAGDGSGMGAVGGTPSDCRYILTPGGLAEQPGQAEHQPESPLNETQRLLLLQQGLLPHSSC
Procedure, shortened: as §1

EGFR (ErbB1) C797S = molecular target: T7, EGFR (ErbB1) C797S (Homo sapiens, UniProt P00533, C797S)
T7 construct: purchased Thermo Fisher Scientific
T7 sequence (P00533 25-1210 C797S): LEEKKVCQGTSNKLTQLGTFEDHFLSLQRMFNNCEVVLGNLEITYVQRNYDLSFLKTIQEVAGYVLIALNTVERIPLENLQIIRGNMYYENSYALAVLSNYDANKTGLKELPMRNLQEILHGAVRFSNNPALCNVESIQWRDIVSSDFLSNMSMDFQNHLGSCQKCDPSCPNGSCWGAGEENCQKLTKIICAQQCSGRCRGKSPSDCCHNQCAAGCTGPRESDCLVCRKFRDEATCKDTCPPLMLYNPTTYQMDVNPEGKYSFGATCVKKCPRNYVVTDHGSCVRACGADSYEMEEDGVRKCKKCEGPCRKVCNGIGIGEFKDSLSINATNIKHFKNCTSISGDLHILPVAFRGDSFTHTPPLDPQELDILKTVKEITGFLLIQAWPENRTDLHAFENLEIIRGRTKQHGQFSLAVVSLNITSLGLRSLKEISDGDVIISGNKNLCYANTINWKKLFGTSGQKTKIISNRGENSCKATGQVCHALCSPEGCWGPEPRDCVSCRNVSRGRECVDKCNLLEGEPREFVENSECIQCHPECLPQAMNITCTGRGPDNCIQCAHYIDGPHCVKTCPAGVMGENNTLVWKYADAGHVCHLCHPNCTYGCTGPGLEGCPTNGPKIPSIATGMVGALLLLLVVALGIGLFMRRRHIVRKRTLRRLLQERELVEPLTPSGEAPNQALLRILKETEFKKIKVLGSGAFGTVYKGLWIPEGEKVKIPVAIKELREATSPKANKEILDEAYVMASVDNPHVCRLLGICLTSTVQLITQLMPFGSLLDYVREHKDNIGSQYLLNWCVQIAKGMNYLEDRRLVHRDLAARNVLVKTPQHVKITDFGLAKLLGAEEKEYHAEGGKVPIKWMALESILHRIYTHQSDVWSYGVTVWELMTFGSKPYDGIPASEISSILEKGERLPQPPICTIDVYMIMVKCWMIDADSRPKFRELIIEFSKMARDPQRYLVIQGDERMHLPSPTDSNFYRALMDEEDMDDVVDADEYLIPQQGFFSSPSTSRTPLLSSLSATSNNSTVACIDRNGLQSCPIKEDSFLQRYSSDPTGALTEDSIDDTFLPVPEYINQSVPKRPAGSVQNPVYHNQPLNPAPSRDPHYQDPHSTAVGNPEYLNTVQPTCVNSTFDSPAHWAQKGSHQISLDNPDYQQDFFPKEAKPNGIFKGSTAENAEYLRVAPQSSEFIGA
Procedure, shortened: as §1

SRPK2 = molecular target: T8, SRPK2 (Homo sapiens, UniProt P78362)
T8 construct: purchased Thermo Fisher Scientific
T8 sequence (P78362 whole entry): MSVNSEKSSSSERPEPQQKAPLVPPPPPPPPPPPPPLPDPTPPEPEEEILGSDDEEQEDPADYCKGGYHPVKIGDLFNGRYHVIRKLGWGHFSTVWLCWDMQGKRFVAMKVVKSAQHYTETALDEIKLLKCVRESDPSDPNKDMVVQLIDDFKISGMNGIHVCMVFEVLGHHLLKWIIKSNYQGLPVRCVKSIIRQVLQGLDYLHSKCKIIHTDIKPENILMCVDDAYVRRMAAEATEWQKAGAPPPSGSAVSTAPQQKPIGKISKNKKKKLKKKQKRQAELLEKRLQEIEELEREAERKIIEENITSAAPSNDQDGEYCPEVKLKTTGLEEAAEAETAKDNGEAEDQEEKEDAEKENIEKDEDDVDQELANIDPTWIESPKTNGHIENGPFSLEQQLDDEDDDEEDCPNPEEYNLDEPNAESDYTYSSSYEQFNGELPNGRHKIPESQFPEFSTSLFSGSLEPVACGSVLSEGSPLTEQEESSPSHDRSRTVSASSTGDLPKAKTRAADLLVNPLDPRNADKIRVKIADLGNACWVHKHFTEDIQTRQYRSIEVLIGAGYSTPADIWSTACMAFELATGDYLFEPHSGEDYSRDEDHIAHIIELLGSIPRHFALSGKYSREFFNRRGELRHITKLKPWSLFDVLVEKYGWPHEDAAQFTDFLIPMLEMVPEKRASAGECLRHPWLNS
Procedure, shortened: as §1

CSNK1D (CK1 delta) = molecular target: T9, CSNK1D (CK1 delta) (Homo sapiens, UniProt P48730)
T9 construct: purchased Thermo Fisher Scientific
T9 sequence (P48730 whole entry): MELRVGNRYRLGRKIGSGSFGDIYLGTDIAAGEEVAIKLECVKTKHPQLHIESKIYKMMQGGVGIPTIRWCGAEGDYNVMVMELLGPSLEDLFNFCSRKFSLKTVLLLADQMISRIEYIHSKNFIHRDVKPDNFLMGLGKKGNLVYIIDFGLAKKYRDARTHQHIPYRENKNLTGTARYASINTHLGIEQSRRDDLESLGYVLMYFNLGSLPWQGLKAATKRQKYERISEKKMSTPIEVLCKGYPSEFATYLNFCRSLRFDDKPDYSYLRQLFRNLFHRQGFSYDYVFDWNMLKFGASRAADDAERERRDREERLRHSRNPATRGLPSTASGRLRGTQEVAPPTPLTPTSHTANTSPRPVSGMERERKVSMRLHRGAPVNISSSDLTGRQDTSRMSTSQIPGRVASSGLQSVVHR
Procedure, shortened: as §1

ABL1 E255K = molecular target: T10, ABL1 E255K (Homo sapiens, UniProt P00519, E255K)
T10 construct: purchased Thermo Fisher Scientific
Procedure, shortened: as §1

CAMK1D (CaMKI delta) = molecular target: T11, CAMK1D (CaMKI delta) (Homo sapiens, UniProt Q8IU85)
T11 construct: purchased Thermo Fisher Scientific
Procedure, shortened: as §1

SMILES | inhibition at 1 µM (PRKCQ (PKC theta)) [%] | inhibition at 10 µM (PRKCQ (PKC theta)) [%] | inhibition at 1 µM (CAMK2D (CaMKII delta)) [%] | inhibition at 10 µM (CAMK2D (CaMKII delta)) [%] | inhibition at 1 µM (TXK) [%] | inhibition at 10 µM (TXK) [%] | inhibition at 1 µM (FGFR3 K650E) [%] | inhibition at 10 µM (FGFR3 K650E) [%] | inhibition at 1 µM (PRKCB1 (PKC beta I)) [%] | inhibition at 10 µM (PRKCB1 (PKC beta I)) [%] | inhibition at 1 µM (TYRO3 (RSE)) [%] | inhibition at 10 µM (TYRO3 (RSE)) [%] | inhibition at 1 µM (EGFR (ErbB1) C797S) [%] | inhibition at 10 µM (EGFR (ErbB1) C797S) [%] | inhibition at 1 µM (SRPK2) [%] | inhibition at 10 µM (SRPK2) [%] | inhibition at 1 µM (CSNK1D (CK1 delta)) [%] | inhibition at 10 µM (CSNK1D (CK1 delta)) [%] | inhibition at 1 µM (ABL1 E255K) [%] | inhibition at 10 µM (ABL1 E255K) [%] | also measured
COc1ccc2c(c1OC)c(=O)n1c3ccc(O)cc3c3ccnc2c31 [MW01, 5-Hydroxy-10,11-dimethoxy-9H-benzo[c]indolo[3,2,1-ij][1,5]naphthyridin-9-one] | 4 | 21 | 13 | 60 | 12 | 29 | 6 | 16 | 1 | -17 | 11 | 29 | 4 | 11 | -2 | 0 | 13 | 39 | 7 | 11 | inhibition at 1 µM (CAMK1D (CaMKI delta)): 5%; inhibition at 10 µM (CAMK1D (CaMKI delta)): 9%
COc1ccc2cc3c(N)nn(C(=O)c4cccc(N(C)C)c4)c3nc2c1 [MW05, (3-Amino-7-methoxypyrazolo[3,4-b]quinolin-1-yl)-[3-(dimethylamino)phenyl]methanone] | 2 | -15 | 3 | 13 | 4 | -13 | 8 | -3 | 5 | -7 | 7 | 2 | 1 | -14 | 4 | 10 | -1 | -1 | 6 | 5 | inhibition at 1 µM (CAMK1D (CaMKI delta)): 1%; inhibition at 10 µM (CAMK1D (CaMKI delta)): -1%
